Structures are written as SMILES. Where a name gives a salt, the structure may show the parent alone.

For orientation: melting point means the temperature, or range, at which the solid turns liquid.

`Cc1ccc(N2CCN(C)CC2)c(C=C2CCN(c3ccc(Cl)c(Cl)c3)C2=O)c1` [Example 28, 1-(3,4-Dichlorophenyl)-3-[5-methyl-2-(4-methylpiperazin-1-yl)-benzylidene]-pyrrolidin-2one] displayed a melting point of 149 to 150 °C.

`CN1CCN(c2ccc(F)cc2C=C2CCN(Cc3ccc(Cl)cc3)C2=O)CC1` [Example 24, 1-(4-Chlorobenzyl)-3-[5-fluoro-2-(4-methylpiperazin-1-yl)-benzylidene]-pyrrolidin-2one] displayed a melting point of 131 to 132 °C. On to `CN1CCN(c2ccccc2C=C2CCN(c3ccccc3)C2=O)CC1` [Example 15, 3-[2-(4-Methylpiperazin-1-yl)-benzylidene]-1 phenylpyrrolidin-2-one], for which the melting point was 178 to 179.5 °C. `CN1CCN(c2ccccc2CC2CCN(c3ccc(F)c(F)c3)C2=O)CC1` (stereo not drawn) [Example 29, 1-(3,4-Difluorophenyl)-3-[2-(4-methylpiperazin-1-yl)-benzyl]-pyrrolidin-2-one] displayed a melting point of 130 to 131 °C.

In the case of `CN1CCN(c2ccccc2C=C2CCCN(c3ccc(Cl)c(Cl)c3)C2=O)CC1` [Example 12, 1-(3,4-Dichlorophenyl)-3-[2-(4-methylpiperazin-1-yl)-benzylidene]-piperidin-2-one], the melting point is 138 to 139.5 °C. The value for `CN1CCN(c2ccccc2CC2CCN(c3ccccc3)C2=O)CC1` (stereo not drawn) [Example 30, 3-[2-(4-Methylpiperazin-1-yl)-benzyl]-1-phenyl-pyrrolidin-2-one] was 104 to 105.5 °C; that for `CN1CCN(c2ccc(F)cc2C=C2CCCN(c3ccc(Cl)c(Cl)c3)C2=O)CC1` [Example 14, 1-(3,4-Dichlorophenyl)-3-[5-fluoro-2-(4methylpiperazin-1-yl)-benzylidene]-piperidin-2-one] was 161 to 162 °C; that for `CN1CCN(c2cc(F)ccc2C=C2CCN(c3ccccc3)C2=O)CC1` [Example 19, 3-[4Fluoro-2-(4-methylpiperazin-1-yl)-benzylidene]-1-phenylpyrrolidin-2-one] was 199 to 200.5 °C. In turn, `CN1CCN(c2ccccc2C=C2CCCN(c3ccc(Cl)cc3)C2=O)CC1` [Example 11, 1-(4Chlorophenyl)-3-[2-(4-methylpiperazin-1-yl)-benzylidene]-piperidin-2-one] gave a melting point of 177 to 178 °C. The value for `CN1CCN(c2ccccc2CC2CCCN(c3ccc(Cl)c(Cl)c3)C2=O)CC1.Cl` (stereo not drawn) was 106 to 108 °C.

On to `CN1CCN(c2ccccc2C=C2CCN(c3ccc(C(F)(F)F)cc3)C2=O)CC1` (as salt: hydrochloride) (hydrate or solvate) [Example 16, 3-[2-(4-Methylpiperazin-1-yl)-benzylidene]-1-(4-trifluoromethylphenyl)-pyrrolidin-2-one], for which the melting point was in the range of 181 to 183 °C. Consider `CN1CCN(c2cccc(F)c2C=C2CCN(c3ccc(Cl)c(Cl)c3)C2=O)CC1` [Example 20, 1-(3,4-Dichlorophenyl)-3-[2-fluoro-6-(4-methylpiperazin-1-yl)-benzylidene]-pyrrolidin-2-one], for which the melting point lay in the range of 170 to 171 °C. The value for `CN1CCN(c2ccc(F)cc2C=C2CCCN(c3ccc(Cl)cc3)C2=O)CC1` [Example 13, 1-(4-Chlorophenyl)-3-[5-fluoro-2-(4-methylpiperazin-1-yl)-benzylidene]-piperidin-2-one] was 158 to 159 °C. In the case of `CN(C)CCOc1ccccc1C=C1CCN(c2ccc(Cl)c(Cl)c2)C1=O` (as salt: HCl) [Example 27, 1-(3,4-Dichlorophenyl)-3-[2-(2-dimethylaminoethoxy)-benzylidene]-pyrrolidin-2one] it was 111 to 112 °C; in that of `CN1CCN(c2ccc(F)cc2CC2CCCN(c3ccc(Cl)c(Cl)c3)C2=O)CC1.Cl` (stereo not drawn), 83 to 85 °C. In the case of `CN1CCN(c2ccccc2C=C2CCN(Cc3ccc(Cl)cc3)C2=O)CC1` [Example 23, 1-(4-Chlorobenzyl)-3-[2-(4-methylpiperazin-1-yl)-benzylidene]-pyrrolidin-2-one] it was 129 to 130 °C; in that of `CN1CCN(c2ccc(F)cc2C=C2CCCN(CCc3ccc(Cl)cc3)C2=O)CC1` [Example 22, 1-[2-(4Chlorophenyl)ethyl]-3-[5-fluoro-2-(4-methylpiperazin-1-yl)-benzylidene]-piperidin-2-one], 88 to 90 °C.

Consider `CN1CCN(c2ccccc2C=C2C(=O)N(C)c3ccccc32)CC1.Cl.O` (hydrate or solvate), for which the melting point is 120 °C (dec.). Regarding `CN1CCN(c2ccc(F)cc2C=C2CCCN(c3ccc(F)c(F)c3)C2=O)CC1` [Example 21, 1-(3,4-Difluorophenyl)-3-[5-fluoro-2(4-methylpiperazin-1-yl)-benzylidene]-piperidin-2-one], the melting point was 168 to 170 °C. The value for `CN1CCN(c2ccccc2C=C2CCN(c3ccc(C(F)(F)F)cc3)C2=O)CC1` [Example 16, 3-[2-(4-Methylpiperazin-1-yl)-benzylidene]-1-(4-trifluoromethylphenyl)-pyrrolidin-2-one] was 185 to 186.5 °C; that for `CN1CCN(c2ccccc2C=C2CCN(c3ccc(Cl)cc3)C2=O)CC1` [Example 18, 1-(4-Chlorophenyl)-3-[2-(4-methylpiperazin-1-yl)-benzylidene]-pyrrolidin-2-one] was 188 to 190 °C.

For the origin of these results see patent publication US6924289B2, “Benzyl(Idene)-lactam derivatives, their preparation and their use as selective (ANT) agonists of 5-HT1A- and/or 5-HT1D receptors” (Pfizer Inc, priority 1996, dated 2005).
